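Following 48 hours of exposure in 96-well plates, responses at five concentrations were used to interpolate endpoints linearly. Abbreviation: GI50, concentration required for 50% inhibition of growth. The concentration for full growth arrest is given as TGI.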
Legend:
Assay in all cases: growth of human tumour cells (NCI), 48 h
786-0 renal = tested on: 786-0 renal
A498 renal = tested on: A498 renal
A549 NSCLC = tested on: A549 NSCLC
ACHN renal = tested on: ACHN renal
BT-549 breast = tested on: BT-549 breast
CAKI-1 renal = tested on: CAKI-1 renal
CCRF-CEM leukemia = tested on: CCRF-CEM leukemia
COLO 205 colon = tested on: COLO 205 colon
DU-145 prostate = tested on: DU-145 prostate
EKVX NSCLC = tested on: EKVX NSCLC
HCC-2998 colon = tested on: HCC-2998 colon
HCT-116 colon = tested on: HCT-116 colon
HCT-15 colon = tested on: HCT-15 colon
HL-60(TB) leukemia = tested on: HL-60(TB) leukemia
HOP-62 NSCLC = tested on: HOP-62 NSCLC
HOP-92 NSCLC = tested on: HOP-92 NSCLC
HT29 colon = tested on: HT29 colon
IGROV1 ovarian = tested on: IGROV1 ovarian
K-562 leukemia = tested on: K-562 leukemia
KM12 colon = tested on: KM12 colon
LOX IMVI melanoma = tested on: LOX IMVI melanoma
M14 melanoma = tested on: M14 melanoma
MALME-3M melanoma = tested on: MALME-3M melanoma
MCF7 breast = tested on: MCF7 breast
MDA-MB-231 breast = tested on: MDA-MB-231 breast
MDA-MB-435 = tested on: MDA-MB-435
MDA-MB-468 breast = tested on: MDA-MB-468 breast
MOLT-4 leukemia = tested on: MOLT-4 leukemia
NCI-H226 lung = tested on: NCI-H226 lung
NCI-H23 lung = tested on: NCI-H23 lung
NCI-H460 lung = tested on: NCI-H460 lung
NCI-H522 lung = tested on: NCI-H522 lung
OVCAR-3 ovarian = tested on: OVCAR-3 ovarian
OVCAR-4 ovarian = tested on: OVCAR-4 ovarian
OVCAR-5 ovarian = tested on: OVCAR-5 ovarian
OVCAR-8 ovarian = tested on: OVCAR-8 ovarian
PC-3 prostate = tested on: PC-3 prostate
RXF 393 renal = tested on: RXF 393 renal
SF-268 CNS = tested on: SF-268 CNS
SF-295 CNS = tested on: SF-295 CNS
SF-539 CNS = tested on: SF-539 CNS
SK-MEL-2 melanoma = tested on: SK-MEL-2 melanoma
SK-MEL-28 melanoma = tested on: SK-MEL-28 melanoma
SK-MEL-5 melanoma = tested on: SK-MEL-5 melanoma
SK-OV-3 ovarian = tested on: SK-OV-3 ovarian
SN12C renal = tested on: SN12C renal
SNB-19 CNS = tested on: SNB-19 CNS
SNB-75 CNS = tested on: SNB-75 CNS
SR leukemia = tested on: SR leukemia
SW-620 colon = tested on: SW-620 colon
T-47D breast = tested on: T-47D breast
TK-10 renal = tested on: TK-10 renal
U251 CNS = tested on: U251 CNS
UACC-257 melanoma = tested on: UACC-257 melanoma
UACC-62 melanoma = tested on: UACC-62 melanoma
UO-31 renal = tested on: UO-31 renal

SMILES: C=C1CC[C@@H]2[C@]3(C)COC(c4cn[nH]c4-c4ccc(OC)cc4)O[C@@H]3CC[C@@]2(C)[C@@H]1C/C=C1/C(=O)OCC1O (some centres not stated)
- GI50 (786-0 renal): 1.92 µM
- TGI (786-0 renal): 3.6 µM
- GI50 (A498 renal): 17 µM
- TGI (A498 renal): 50.5 µM
- GI50 (A549 NSCLC): 3.32 µM
- TGI (A549 NSCLC): 19.5 µM
- GI50 (ACHN renal): 3.52 µM
- TGI (ACHN renal): 14.1 µM
- GI50 (BT-549 breast): 2.36 µM
- TGI (BT-549 breast): 7.22 µM
- GI50 (CAKI-1 renal): 2.96 µM
- TGI (CAKI-1 renal): 12.1 µM
- GI50 (CCRF-CEM leukemia): 2.08 µM
- TGI (CCRF-CEM leukemia): 6.9 µM
- GI50 (COLO 205 colon): 1.95 µM
- TGI (COLO 205 colon): 3.73 µM
- GI50 (DU-145 prostate): 3.23 µM
- TGI (DU-145 prostate): 12.1 µM
- GI50 (EKVX NSCLC): 2.66 µM
- TGI (EKVX NSCLC): 10.5 µM
- GI50 (HCC-2998 colon): 2.87 µM
- TGI (HCC-2998 colon): 8.28 µM
- GI50 (HCT-116 colon): 1.86 µM
- TGI (HCT-116 colon): 3.57 µM
- GI50 (HCT-15 colon): 2.54 µM
- TGI (HCT-15 colon): 8.37 µM
- GI50 (HL-60(TB) leukemia): 2.69 µM
- TGI (HL-60(TB) leukemia): 14.7 µM
- GI50 (HOP-62 NSCLC): 3.44 µM
- TGI (HOP-62 NSCLC): 14.2 µM
- GI50 (HOP-92 NSCLC): 2.02 µM
- TGI (HOP-92 NSCLC): 5 µM
- GI50 (HT29 colon): 2.86 µM
- TGI (HT29 colon): 7.91 µM
- GI50 (IGROV1 ovarian): 3.98 µM
- TGI (IGROV1 ovarian): 20 µM
- GI50 (K-562 leukemia): 2.71 µM
- TGI (K-562 leukemia): > 100 µM
- GI50 (KM12 colon): 2.38 µM
- TGI (KM12 colon): 5.43 µM
- GI50 (LOX IMVI melanoma): 1.73 µM
- TGI (LOX IMVI melanoma): 3.42 µM
- GI50 (M14 melanoma): 3.14 µM
- TGI (M14 melanoma): 13.2 µM
- GI50 (MALME-3M melanoma): 1.74 µM
- TGI (MALME-3M melanoma): 3.64 µM
- GI50 (MCF7 breast): 2.48 µM
- TGI (MCF7 breast): 11.8 µM
- GI50 (MDA-MB-231 breast): 2.39 µM
- TGI (MDA-MB-231 breast): 5.48 µM
- GI50 (MDA-MB-435): 2.24 µM
- TGI (MDA-MB-435): 6.42 µM
- GI50 (MDA-MB-468 breast): 2.17 µM
- TGI (MDA-MB-468 breast): 5.6 µM
- GI50 (MOLT-4 leukemia): 2.21 µM
- TGI (MOLT-4 leukemia): > 100 µM
- GI50 (NCI-H226 lung): 3.58 µM
- TGI (NCI-H226 lung): 18.4 µM
- GI50 (NCI-H23 lung): 2.51 µM
- TGI (NCI-H23 lung): 7.69 µM
- GI50 (NCI-H460 lung): 1.91 µM
- TGI (NCI-H460 lung): 3.9 µM
- GI50 (NCI-H522 lung): 2.49 µM
- TGI (NCI-H522 lung): 7.81 µM
- GI50 (OVCAR-3 ovarian): 2.27 µM
- TGI (OVCAR-3 ovarian): 5.87 µM
- GI50 (OVCAR-4 ovarian): 2.96 µM
- TGI (OVCAR-4 ovarian): > 100 µM
- GI50 (OVCAR-5 ovarian): 3.9 µM
- TGI (OVCAR-5 ovarian): 13.4 µM
- GI50 (OVCAR-8 ovarian): 3.34 µM
- TGI (OVCAR-8 ovarian): > 100 µM
- GI50 (PC-3 prostate): 2.98 µM
- TGI (PC-3 prostate): > 100 µM
- GI50 (RXF 393 renal): 1.74 µM
- TGI (RXF 393 renal): 3.4 µM
- GI50 (SF-268 CNS): 3.25 µM
- TGI (SF-268 CNS): > 100 µM
- GI50 (SF-295 CNS): 2.13 µM
- TGI (SF-295 CNS): 4.77 µM
- GI50 (SF-539 CNS): 2.03 µM
- TGI (SF-539 CNS): 4.36 µM
- GI50 (SK-MEL-2 melanoma): 3.97 µM
- TGI (SK-MEL-2 melanoma): 17.8 µM
- GI50 (SK-MEL-28 melanoma): 2.54 µM
- TGI (SK-MEL-28 melanoma): 5.91 µM
- GI50 (SK-MEL-5 melanoma): 1.52 µM
- TGI (SK-MEL-5 melanoma): 2.95 µM
- GI50 (SK-OV-3 ovarian): 10.5 µM
- TGI (SK-OV-3 ovarian): 67.4 µM
- GI50 (SN12C renal): 3.54 µM
- TGI (SN12C renal): 16.5 µM
- GI50 (SNB-19 CNS): 4.42 µM
- TGI (SNB-19 CNS): 19.4 µM
- GI50 (SNB-75 CNS): 1.75 µM
- TGI (SNB-75 CNS): 5.86 µM
- GI50 (SR leukemia): 2.87 µM
- TGI (SR leukemia): > 100 µM
- GI50 (SW-620 colon): 2.29 µM
- TGI (SW-620 colon): 5.56 µM
- GI50 (T-47D breast): 3.25 µM
- TGI (T-47D breast): > 100 µM
- GI50 (TK-10 renal): 4.12 µM
- TGI (TK-10 renal): 16.7 µM
- GI50 (U251 CNS): 2.77 µM
- TGI (U251 CNS): 10.7 µM
- GI50 (UACC-257 melanoma): 2.46 µM
- TGI (UACC-257 melanoma): 8.92 µM
- GI50 (UACC-62 melanoma): 1.68 µM
- TGI (UACC-62 melanoma): 4.06 µM
- GI50 (UO-31 renal): 1.7 µM
- TGI (UO-31 renal): 3.91 µM
